Reference: patent US20230310441A1, “TREATMENT FOR SCHIZOPHRENIA” (TAKEDA PHARMACEUTICAL COMPANY, priority 2020, published 2023)

Experiment: Brief Assessment of Cognition in Schizophrenia (BACS) composite score
Assay type: in vivo, human
Method: On Day 1 of each treatment period, following study drug administration, and commencing at approximately 2 h post-dose, subjects underwent PD tests for a total of approximately 4 h. Blood samples were collected at defined times after dosing to assess the PK of Compound (I). After the last PK collection at 6 h post-dose, subjects left the clinic. On Day 14 of each Treatment Period, subjects took the second set of PD tests along with a single time point PK collection. Samples for PK were also collected on Day 49 and at the final visit of the second treatment period. PD testing were performed in 3 blocks, separated by 2 breaks. The first block comprised the Grip Effort Task, the Progressive Ratio Test, and the Brief Assessment of Cognition in Schizophrenia (BACS). The BACS is a reliable and sensitive test battery specifically designed to efficiently assesses important cognitive deficits in patients with schizophrenia; accordingly, the BACS is suited for repeated testing in a clinical trial setting (Keefe et al., 2004). […] The following domains of cognitive function found to be consistently impaired in schizophrenia were assessed in this study: verbal memory; working memory; motor function; attention and processing speed; verbal fluency; and executive function. A composite score was calculated from each of the subset scores and used as a single endpoint for the assessment.
The BACS consisted of items across 6 subtests: Verbal Memory, Digit Sequencing, Token Motor, Verbal Fluency, Symbol Coding, and Tower of London.
The observed BOLD signal was summarized (N, mean, median, SD, minimum, and maximum) by treatment (Compound (I) (overall and by dose) and placebo) and time. The BACS composite score was summarized for baseline, post-dose, and change from baseline by treatment, dose, and time.
Each of the primary PD measures was analyzed using a Bayesian normal linear model with effects for sequence, period, treatment, time (as a categorical variable), the treatment-by-time interaction, subject within treatment sequence, and baseline (for BACS only). For the BOLD fMRI, the observed value was the response variable in the model. For the BACS, the observed and the change from baseline were modeled separately. Missing values were not imputed and were not included in the model under a missing at random assumption. A diffuse normal distribution with mean zero and variance 106 was used as a prior for the regression coefficients and a diffuse inverse gamma with shape and scale parameters of 0.01 for the residual variance. […]

C[C@H](NC(=O)Cn1nnc2ccccc2c1=O)c1ccc(OC(F)(F)F)cc1 [Compound (I), (S)-2-(4-oxobenzo[d][1,2,3]triazin-3(4H)-yl)-N-(1-(4-(trifluoromethoxy)phenyl)ethyl)acetamide]
posterior mean (SD) for the difference to placebo, BACS composite score (Day 14, 40 mg): −0.23 (2.95)
posterior mean (SD) for the difference to placebo, BACS composite score (Day 14, 160 mg): −0.84 (1.87)
posterior mean (SD) for the difference to placebo, BACS composite score (Day 14, overall): −0.61 (1.50)
BACS performance (phase 2): not seen to be affected
